In test [1] the test system is Peptostreptococcus intermedius 1264. As to the kind of experiment: Susceptibility of anaerobic bacteria, agar dilution. It counts as cell-based. As to conditions: 24 h; Peptostreptococcus intermedius 1264; read-out: 24 Hr. Minimum Inhibitory Concentration.
The subject of the next test is Salmonella typhimurium. As to the kind of experiment: Control of infections caused by Salmonella typhimurium in chickens, subcutaneous (Experiment 2). As to conditions: Salmonella enterica, sc, 144 h, 6 days, read-out: Survival Ratio (converted); for responders at 7.5 mg/kg: 7.5 mg./kg. subcutaneous; for responders at 15 mg/kg: 15 mg./kg. subcutaneous; for responders at 30 mg/kg: 30 mg./kg. subcutaneous; for responders at 60 mg/kg: 60 mg./kg. subcutaneous. It counts as in vivo. The procedure:
The efficacy of the novel compounds in the control of infections caused by Salmonella typhimurium in chickens was evaluated in the following manner.
The test was carried out using day-old chicks weighing approximately 35 g. each. The chicks were divided into groups of 5 chicks per each dosage level. A portion of the chicks received the test compound which was suspended in 0.2 ml. of polyethylene glycol 200 and administered subcutanusly in the neck. […] All the chicks were challenged with a 1:200 dilution of a culture of the organism, 0.1 ml. of the dilution being injected into each chick in the leg intramuscularly. […] The test compounds are identified in the same manner as set forth in Experiment 1.
In the chart, column 1 lists the compounds tested; column 2, the dosage of test compound in mg./kg.; and column 3, the survival ratio.

The subject of test [2] is Veillonella alcalescens 1. The test is described as follows: Susceptibility of anaerobic bacteria, agar dilution. It counts as cell-based. As to conditions: read-out: 24 Hr. Minimum Inhibitory Concentration.
The subject of test [3] is Bacteroides fragilis sp. fragilis 1877. Described as above. The class given is cell-based. The following applies: 24 h, read-out: 24 Hr. Minimum Inhibitory Concentration.
The subject of test [4] is Clostridium septicum bovine. The test is described as above. It counts as cell-based. The following applies: 24 h, read-out: 24 Hr. Minimum Inhibitory Concentration.
Test [5] concerns Clostridium septicum 1128. The test is described as above. It counts as cell-based. As to conditions: 24 h, read-out: 24 Hr. Minimum Inhibitory Concentration.
Test [6] concerns Propionibacterium acnes 44. The description is as above. The following applies: Cutibacterium acnes, 24 h; Propionibacterium acnes 44; read-out: 24 Hr. Minimum Inhibitory Concentration. The class given is cell-based.
Another test relates to Clostridium ramosum 1313. Described as above. The class given is cell-based. The following applies: read-out: 24 Hr. Minimum Inhibitory Concentration.
Test [7] relates to Bacteroides fragilis sp. fragilis 1936B. Described as above. The class given is cell-based. The following applies: 24 h, read-out: 24 Hr. Minimum Inhibitory Concentration.
The subject of test [8] is Eubacterium aerofaciens 1235. The test is described as above. The class given is cell-based. The following applies: read-out: 24 Hr. Minimum Inhibitory Concentration.
The test system of test [9] is Bacteroides fragilis sp. vulgatus 1211. Described as above. It counts as cell-based. As to conditions: 24 h, read-out: 24 Hr. Minimum Inhibitory Concentration.
The subject of test [10] is Fusobacterium symbiosum 1470. The description is as above. It counts as cell-based. As to conditions: read-out: 24 Hr. Minimum Inhibitory Concentration.
The test system of test [11] is Clostridium innocuum 1373. Described as above. The class given is cell-based. As to conditions: read-out: 24 Hr. Minimum Inhibitory Concentration.
The subject of another test is Actinomyces bovis 13684. Described as above. The class given is cell-based. As to conditions: read-out: 24 Hr. Minimum Inhibitory Concentration.
The test system of test [12] is Bacteroides fragilis sp. thetaiotaomicron 1438. The description is as above. The class given is cell-based. As to conditions: 24 h, read-out: 24 Hr. Minimum Inhibitory Concentration.
The test system of test [13] is Bacteroides fragilis sp. vulgatus 1563. The test is described as above. The class given is cell-based. As to conditions: 24 h, read-out: 24 Hr. Minimum Inhibitory Concentration.
The subject of test [14] is Peptococcus anaerobius 1428. Described as above. As to conditions: 24 h, read-out: 24 Hr. Minimum Inhibitory Concentration. It counts as cell-based.
Test [15] deals with Propionibacterium acnes 79. Described as above. It counts as cell-based. As to conditions: read-out: 24 Hr. Minimum Inhibitory Concentration.
Test [16] has as its system Fusobacterium necrophorum 13859. The test is described as above. The class given is cell-based. The following applies: read-out: 24 Hr. Minimum Inhibitory Concentration.
The test system of test [17] is Clostridium perfringens 81. The test is described as follows: microbe, parasite or virus in culture. It counts as cell-based. The following applies: Clostridium perfringens, 81, 24 h, read-out: 24 Hr. Minimum Inhibitory Concentration.
[18] abbreviates: Thomasclavelia ramosa, 1313, 24 h.
Setting [19] is: Collinsella aerofaciens, 1235, 24 h.
[20] abbreviates: [Clostridium] innocuum, 1373, 24 h.
[21] abbreviates: Fusobacterium necrophorum, 13859, 24 h.
[22] abbreviates: Thomasclavelia ramosa, 24 h, Clostridium ramosum 1313.

Converted amounts (≈) assume the structure as drawn. Where two headings read alike, the source gives them in different places. Some results are limits rather than exact numbers.

As for `CC=CC=Nc1c(C#N)c(-c2ncc([N+](=O)[O-])n2C)nn1C` [Compound 18, 5-(2-butenylideneamino)-1-methyl-3-(1-methyl-5-nitro-2-imidazolyl)pyrazole-4-carbonitrile], the MIC in [1] is 0.25 µg/mL (≈ 0.835 µM); in [2] (Veillonella parvula, 1, 24 h) it was < 0.125 µg/mL; in test [3] (Bacteroides fragilis), < 0.125 µg/mL; in test [4], < 0.125 µg/mL; in test [5] it was < 0.125 µg/mL; in test [6] it was > 32 µg/mL. Besides, the MIC in the test with Clostridium ramosum 1313 (setting [18]) is < 0.125 µg/mL; in test [7] (Bacteroides fragilis) it was < 0.125 µg/mL; in [8] (setting [19]), < 0.125 µg/mL; in test [9] (Bacteroides fragilis) it was < 0.125 µg/mL; in test [10] (Fusobacterium, 1470, 24 h), < 0.125 µg/mL; in test [11] (setting [20]), < 0.125 µg/mL. For the same compound, the MIC is < 0.125 µg/mL with Actinomyces bovis 13684 (Actinomyces bovis, 13684, 24 h); < 0.125 µg/mL in test [12] (Bacteroides fragilis); < 0.125 µg/mL in test [13] (Bacteroides fragilis); < 0.125 µg/mL in [14]; < 0.125 µg/mL in [15] (Cutibacterium acnes, 79, 24 h); < 0.125 µg/mL in test [16] (setting [21]). Moreover, the MIC in [17] is < 0.125 µg/mL. In the test with Salmonella typhimurium, the responders at 7.5 mg/kg was 0%. In the test with Salmonella typhimurium, the responders at 15 mg/kg was 53.3%. Further, the responders at 30 mg/kg in the test with Salmonella typhimurium was 66.7%. Also, the responders at 60 mg/kg in the test with Salmonella typhimurium is 66.7%.

Regarding `Cn1c([N+](=O)[O-])cnc1-c1nn(CCO)c(N)c1C#N` [Compound 14, 5-Amino-1-(2-hydroxyethyl)-3-(1-methyl-5-nitro-2-imidazolyl)pyrazole-4-carbonitrile], the MIC in test [1] was 1 µg/mL (≈ 3.61 µM); in test [2] (Veillonella parvula, 1, 24 h), < 0.125 µg/mL; in test [3] (Bacteroides fragilis), < 0.125 µg/mL; in [4], < 0.125 µg/mL; in test [5] it was < 0.125 µg/mL; in test [6], > 32 µg/mL. The MIC was < 0.125 µg/mL with Clostridium ramosum 1313 (setting [18]); < 0.125 µg/mL in test [7] (Bacteroides fragilis); < 0.125 µg/mL in test [8] (setting [19]); < 0.125 µg/mL in test [9] (Bacteroides fragilis); < 0.125 µg/mL in test [10] (Fusobacterium, 1470, 24 h); < 0.125 µg/mL in test [11] (setting [20]). Further, the MIC with Actinomyces bovis 13684 (Actinomyces bovis, 13684, 24 h) was < 0.125 µg/mL; in test [12] (Bacteroides fragilis), < 0.125 µg/mL; in [13] (Bacteroides fragilis), < 0.125 µg/mL; in [14], < 0.125 µg/mL; in test [15] (Cutibacterium acnes, 79, 24 h), < 0.125 µg/mL; in test [16] (setting [21]), < 0.125 µg/mL. Further, in test [17], the MIC is < 0.125 µg/mL. Besides, the responders at 7.5 mg/kg with Salmonella typhimurium is 20%. Besides, the responders at 15 mg/kg in the test on Salmonella typhimurium was 6.67%. Besides, the responders at 30 mg/kg in the test on Salmonella typhimurium is 40%. In the test with Salmonella typhimurium, the responders at 60 mg/kg was 93.3%.

Consider `CC(=O)Nc1c(C#N)c(-c2ncc([N+](=O)[O-])n2C)nn1C` [Compound 8, N-[4-cyano-1-methyl-3-(1-methyl-5-nitro-2-imidazolyl)pyrazol-5-yl]acetamide], for which the MIC in test [1] is 4 µg/mL (≈ 13.8 µM); in [2] (Veillonella parvula, 24 h, Veillonella alcalescens 1), 0.03 µg/mL (≈ 0.104 µM); in test [3] (Bacteroides fragilis sp. fragilis 1877), 0.25 µg/mL (≈ 0.864 µM); in [4] it was 1 µg/mL (≈ 3.46 µM); in [5], 0.25 µg/mL (≈ 0.864 µM); in test [6], > 8 µg/mL. Moreover, the MIC was determined as 0.25 µg/mL (≈ 0.864 µM) with Clostridium ramosum 1313 (setting [22]); 0.25 µg/mL (≈ 0.864 µM) in [7] (Bacteroides fragilis sp. fragilis 1936B); 0.125 µg/mL (≈ 0.432 µM) in test [8] (Collinsella aerofaciens, 24 h, Eubacterium aerofaciens 1235); 0.25 µg/mL (≈ 0.864 µM) in test [9] (Bacteroides fragilis sp. vulgatus 1211); 0.03 µg/mL (≈ 0.104 µM) in [10] (24 h, Fusobacterium symbiosum 1470); 1 µg/mL (≈ 3.46 µM) in test [11] (24 h, Clostridium innocuum 1373). The MIC in the test on Actinomyces bovis 13684 (24 h, Actinomyces bovis 13684) worked out at 4 µg/mL (≈ 13.8 µM); in test [12] (Bacteroides fragilis sp. thetaiotaomicron 1438) it was 0.5 µg/mL (≈ 1.73 µM); in test [13] (Bacteroides fragilis sp. vulgatus 1563), 0.25 µg/mL (≈ 0.864 µM); in test [14] (Peptococcus anaerobius 1428) it was 1 µg/mL (≈ 3.46 µM); in test [15] (Cutibacterium acnes, 24 h, Propionibacterium acnes 79) it was 0.03 µg/mL (≈ 0.104 µM); in test [16] (24 h, Fusobacterium necrophorum 13859), 0.06 µg/mL (≈ 0.207 µM). For the same compound, the MIC in [17] stood at 1 µg/mL (≈ 3.46 µM). Also, the responders at 15 mg/kg in the test on Salmonella typhimurium was 0%. For the same compound, in the test with Salmonella typhimurium, the responders at 30 mg/kg is 20%. For the same compound, the responders at 60 mg/kg with Salmonella typhimurium is 60%.

As for `Cn1nc(-c2ncc([N+](=O)[O-])n2C)cc1N` [Compound 3, 5-Amino-1-methyl-3-(1-methyl-5-nitro-2-imidazolyl)pyrazole], the MIC is 16 µg/mL (≈ 72 µM) in test [1]; < 0.125 µg/mL in test [2] (Veillonella parvula, 1, 24 h); < 0.125 µg/mL in [3] (Bacteroides fragilis); < 0.125 µg/mL in [4]; < 0.125 µg/mL in test [5]; 0.5 µg/mL (≈ 2.25 µM) in test [6]. Also, the MIC in the test with Clostridium ramosum 1313 (setting [22]) was 4 µg/mL (≈ 18 µM); in test [7] (Bacteroides fragilis), < 0.125 µg/mL; in [8] (setting [19]), < 0.125 µg/mL; in test [9] (Bacteroides fragilis) it was < 0.125 µg/mL; in test [10] (Fusobacterium, 1470, 24 h), < 0.125 µg/mL; in [11] (setting [20]) it was < 0.125 µg/mL. Further, the MIC in the test with Actinomyces bovis 13684 (Actinomyces bovis, 13684, 24 h) was < 0.125 µg/mL; in [12] (Bacteroides fragilis) it was < 0.125 µg/mL; in test [13] (Bacteroides fragilis) it was < 0.125 µg/mL; in test [14], < 0.125 µg/mL; in test [15] (Cutibacterium acnes, 79, 24 h), < 0.125 µg/mL; in [16] (setting [21]) it was < 0.125 µg/mL. The MIC in test [17] is < 0.125 µg/mL.

The values are drawn from patent US3980794A, “Method for promoting growth of poultry with 3-(5-nitro-2-imidazolyl)pyrazoles” (Eli Lilly and Company, priority 1975, dated 1976).
